Experimental data published in patent US11357728B2, “Liposome having inner water phase containing sulfobutyl ether cyclodextrin salt” (CSPC ZHONGQI PHARMACEUTICAL TECHNOLOGY (SHIJIAZHUANG) CO., …, priority 2009, dated 2022).

Columns and labels:
[1] = test system: Prostate RM-1 Tumor Model; test: Anti-tumor efficacies of topotecan liposomes on prostate RM-1 tumor model; assay type: in vivo, female C57 mice; conditions: single i.v. 10 mg/kg; for Tumor volume (mm^3): n = 10, x ± sd
Procedure: RM-1 […] cancer cells were collected, and diluted with 1640 medium. After dilution, the tumor cell number was modulated to 2.0×10^6 cells/ml. 0.2 mL of the tumor cell suspension containing about 4×10^5 tumor cells was inoculated into forward limb oxter subcutaneous tissue of female C57 mice under aseptic condition. Twelve days after inoculation, mice were randomized by tumor volume into groups and administered with a single i.v. injection at a dose of 10 mg/kg.
The mice were bred normally after administration. Tumor diameters were measured to dynamically evaluate anti-tumor efficacies of different formulations. Tumor volume (TV) was calculated with the following formula: TV=½×a×b^2, in which a and b represent length and width, respectively.
The tumor volumes were calculated by using the measurement results. The experiment data were analyzed using SPSS 11.5 statistics software.

[2] = test system: KM mice; test: Toxicity of liposomal formulations in KM mice
[3] = dosage level 40.6 mg/kg topotecan, two female KM mice per group, 14 days

Which results are given for `CC[C@@]1(O)C(=O)OCc2c1cc1n(c2=O)Cc2cc3c(CN(C)C)c(O)ccc3nc2-1` [Free topotecan, topotecan]?
suppression of tumor growth in comparison with 5% glucose for injection as control ([1]; RM-1 tumor model): did not significantly suppress the growth of tumor; Tumor volume (mm^3) ([1]; day 0 after administration): 223.0 ± 65.7 mm^3; Tumor volume (mm^3) ([1]; day 2 after administration): 484.0 ± 154.7 mm^3; Tumor volume (mm^3) ([1]; day 4 after administration): 606.0 ± 183.1 mm^3; Tumor volume (mm^3) ([1]; day 6 after administration): 1060.7 ± 393.0 mm^3; Tumor volume (mm^3) ([1]; day 8 after administration): 1301.8 ± 563.7 mm^3; Tumor volume (mm^3) ([1]; day 9 after administration): 1628.5 ± 835.4 mm^3; Tumor volume (mm^3) ([1]; day 13 after administration): 3592.9 ± 1523.5 mm^3; Tumor volume (mm^3) ([1]; day 15 after administration): 6639.3 ± 2388.2 mm^3; Number of Animals with >15% weight loss ([2]; dosage level 32.5 mg/kg topotecan, two female KM mice per group, 14 days): 1; Number of Animals with >15% weight loss [2, 3]: 2; number of dead animals [2, 3]: 1; order of toxicity ([2]; topotecan formulations, KM mice): free topotecan<liposome having SBE-CD/TA as inner water phase<liposome having sucrose octasulfate as inner water phase
